Literature values in patent US7816516B2, “Conjugates of hydroxyalkyl starch and an active agent” (Fresenius Kabi Deutschland GmbH, priority 2001, dated 2010).

How the values were obtained:
[1] = in vivo
[2] = isolated haemoglobin; dimers eliminated via the kidneys

Row | Compound | portion of renal elimination [1] | biological half-life in the blood circulation [2]
1 | CO[C@@]12[C@H](COC(N)=O)C3=C(C(=O)C(C)=C(N)C3=O)N1C[C@@H]1N[C@@H]12 [mitomycin C] | approximately 18% | 
2 | haemoglobin |  | approx. 1 hour
